Measurements from patent US20240317775A1, “H4 Antagonist Compounds” (HEPTARES THERAPEUTICS LIMITED, priority 2020, published 2024).

How the values were obtained:
Type in all cases: cell-based
human H4 receptor [1] = biological target: T1, human H4 receptor (Homo sapiens, UniProt Q9H3N8); assay: H4 Antagonist Functional Dynamic Mass Redistribution Assay; conditions: HEKf cells expressing human H4 receptor; functional antagonist pKb by Cheng-Prusoff vs histamine EC80; read-out: Human H4 DMR fpKb (converted)
T1 construct: expressed in transfected cells; host or cells: HEKf cells infected with baculovirus
T1 sequence (Q9H3N8 whole entry): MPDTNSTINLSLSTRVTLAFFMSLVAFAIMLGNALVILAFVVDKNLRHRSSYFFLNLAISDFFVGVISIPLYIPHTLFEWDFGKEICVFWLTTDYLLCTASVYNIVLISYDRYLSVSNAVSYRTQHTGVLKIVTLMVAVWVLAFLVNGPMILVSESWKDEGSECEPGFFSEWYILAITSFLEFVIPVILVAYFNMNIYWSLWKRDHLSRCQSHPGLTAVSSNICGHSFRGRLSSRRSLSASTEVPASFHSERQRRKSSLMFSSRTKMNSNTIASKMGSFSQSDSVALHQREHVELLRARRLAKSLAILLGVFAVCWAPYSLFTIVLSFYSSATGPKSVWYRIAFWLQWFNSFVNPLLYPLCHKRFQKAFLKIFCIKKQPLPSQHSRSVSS
Experimental: HEKf cells were infected using baculovirus expressing the human H4 receptor, plated into fibronectin-coated EPIC plates at a density of 10,000 cells/well and incubated overnight at 37° C. The medium on cells was changed to 30 μL HBSS with 20 mM HEPES per well and 30 nL DMSO were added per well by LabCyte ECHO acoustic dispensing. Following 2 h equilibration at room temperature, 30 nL of H4 ligands prepared in DMSO were stamped by LabCyte ECHO acoustic dispensing into seeded EPIC plates and cellular dynamic mass redistribution was monitored using a Corning EPIC plate reader. Following 45 min measurement, 30 nL/well of histamine EC80 was added and monitored to obtain antagonist assay data. Maximum baseline-corrected responses in pm were used to generate concentration response curves. EC50 values were generated using a 4-parameter logistical fit equation to quantify agonist potencies. Functional antagonist affinity values were generated using the Cheng-Prusoff equation to calculate a pKb value using the antagonist assay data.

human H4 receptor [2] = biological target: T1, human H4 receptor; assay: H4 Antagonist Functional cAMP Gi Assay; conditions: HEKf cells expressing human H4 receptor; functional antagonist pKb by Cheng-Prusoff vs histamine; read-out: Human H4 cAMP fpKb (converted)
Experimental: HEKf cells were infected overnight using baculovirus expressing the human H4 receptor, then centrifuged at 1,200 rpm for 5 min, frozen in cell freezing medium (Sigma) and stored at −150° C. On the day of assay, the cells were thawed and resuspended in HBSS with 500 nM IBMX to achieve a density of 1,500 cells/well. H4 ligands were prepared in DMSO and stamped by LabCyte ECHO acoustic dispensing at 25 nL in low volume plates. 10 μL/well cells were plated in the presence of 1 μM forskolin, subjected to centrifugation at 1,200 rpm for 1 min and incubated for 30 min prior to addition of Cisbio cAMP detection reagents to a total volume 20 μL/well. […] Following detection reagent addition and shaking at room temperature for 60 min, cAMP accumulation was measured using HTRF on a PheraStar plate reader. EC50 values were generated using a 4-parameter logistical fit equation to quantify agonist potencies. Functional antagonist affinity values were generated using the Cheng-Prusoff equation to calculate a pKb value using the antagonist assay data.

hERG = hERG (Homo sapiens, UniProt Q12809); assay: hERG single-concentration assay (QPatch automated patch clamp, CHO cells, 30 μM); conditions: CHO cells stably expressing hERG
Sequence of hERG (Q12809 whole entry): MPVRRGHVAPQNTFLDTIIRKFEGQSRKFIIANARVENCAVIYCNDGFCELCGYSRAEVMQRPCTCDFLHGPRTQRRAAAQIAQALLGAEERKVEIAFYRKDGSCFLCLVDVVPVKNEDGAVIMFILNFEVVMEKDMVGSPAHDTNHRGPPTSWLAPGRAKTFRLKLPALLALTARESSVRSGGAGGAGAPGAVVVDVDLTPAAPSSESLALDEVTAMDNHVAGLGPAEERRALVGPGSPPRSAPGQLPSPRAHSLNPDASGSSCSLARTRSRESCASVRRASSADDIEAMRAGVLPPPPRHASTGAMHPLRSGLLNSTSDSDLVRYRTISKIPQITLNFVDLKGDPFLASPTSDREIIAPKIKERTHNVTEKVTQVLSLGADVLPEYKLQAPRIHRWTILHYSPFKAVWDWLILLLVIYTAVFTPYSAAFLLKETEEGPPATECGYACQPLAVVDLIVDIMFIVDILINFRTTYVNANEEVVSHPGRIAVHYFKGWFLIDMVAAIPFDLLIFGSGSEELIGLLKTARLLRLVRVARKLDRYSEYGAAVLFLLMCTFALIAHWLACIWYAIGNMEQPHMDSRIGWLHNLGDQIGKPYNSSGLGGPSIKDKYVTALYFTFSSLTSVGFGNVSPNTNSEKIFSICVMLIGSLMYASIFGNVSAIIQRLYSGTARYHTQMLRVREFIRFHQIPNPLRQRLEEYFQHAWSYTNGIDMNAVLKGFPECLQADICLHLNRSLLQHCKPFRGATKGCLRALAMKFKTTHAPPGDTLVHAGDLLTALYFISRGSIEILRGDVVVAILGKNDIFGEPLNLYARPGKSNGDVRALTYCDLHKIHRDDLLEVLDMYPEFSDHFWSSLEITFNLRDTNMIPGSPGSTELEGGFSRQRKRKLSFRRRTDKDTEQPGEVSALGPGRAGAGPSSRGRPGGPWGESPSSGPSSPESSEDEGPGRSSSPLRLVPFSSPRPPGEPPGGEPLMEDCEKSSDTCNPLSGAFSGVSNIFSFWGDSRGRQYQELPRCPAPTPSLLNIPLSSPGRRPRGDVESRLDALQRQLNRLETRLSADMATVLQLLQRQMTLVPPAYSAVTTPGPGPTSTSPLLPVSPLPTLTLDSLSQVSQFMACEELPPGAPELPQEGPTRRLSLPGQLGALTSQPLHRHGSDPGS
Source text: Series resistance (4-15 MΩ) was compensated by >80%.

For `CCC1(C)CCOc2c(ncnc2N2CC[C@@H](NC)C2)N1` (stereo partly drawn) [Example 17-9, (3R)-1-(8-ethyl-8-methyl-6,7,8,9-tetrahydropyrimido[5,4-b][1,4]oxazepin-4-yl)-N-methylpyrrolidin-3-amine], which Kb (human H4 receptor [1]) is on record?
The Kb was 39.8 nM.

How did the Kb (human H4 receptor [2]) turn out when `CN[C@@H]1CCN(c2nc(N)nc3c2OC[C@@H]([C@@H](C)OC)N3)C1` [Example 1-10, (S)-7-((R)-1-Methoxyethyl)-4-((R)-3-(methylamino)pyrrolidin-1-yl)-7,8-dihydro-6H-pyrimido[5,4-b][1,4]oxazin-2-amine] was run?
The Kb was 6.31 nM.

And the inhibition at 30 µM (hERG)?
Its inhibition at 30 µM is 12%.

For `CN[C@@H]1CCN(c2ncnc3c2OCC2(CCCC2)N3)C1` [Example 17-12, (3R)—N-methyl-1-(6′H,8′H-spiro[cyclopentane-1,7′-pyrimido[5,4-b][1,4]oxazin]-4′-yl)pyrrolidin-3-amine], which Kb (human H4 receptor [1]) is on record?
The Kb was 7.94 nM.

With `CN[C@@H]1CCN(c2nc(N)nc3c2OC[C@@H](C(C)(C)OC)N3)C1` [Example 1-12, (S)-7-(2-Methoxypropan-2-yl)-4-((R)-3-(methylamino)pyrrolidin-1-yl)-7,8-dihydro-6H-pyrimido[5,4-b][1,4]oxazin-2-amine] as the compound, how does the Kb (human H4 receptor [2]) read?
The Kb was 2 nM.

What about the inhibition at 30 µM (hERG) of the same compound?
Its inhibition at 30 µM is 8.3%.

How did the Kb (human H4 receptor [2]) turn out when `Nc1nc2c(c(N3CC[C@@H](N)C3)n1)OCC(C(F)(F)F)N2` (stereo partly drawn) [Example 2-3, 4-((R)-3-Aminopyrrolidin-1-yl)-7-(trifluoromethyl)-7,8-dihydro-6H-pyrimido[5,4-b][1,4]oxazin-2-amine] was run?
The Kb was 10 nM.

What about the inhibition at 30 µM (hERG) of the same compound?
The inhibition at 30 µM was 28%.

For `Nc1nc2c(c(N3CC[C@@H](N)C3)n1)OCC1CCCC1N2` (stereo partly drawn) [Example 17-2, 4-[(3R)-3-aminopyrrolidin-1-yl]-6a, 7,8,9,9a, 10-hexahydro-6H-cyclopenta[e]pyrimido[5,4-b][1,4]oxazepin-2-amine], which Kb (human H4 receptor [1]) is on record?
Its Kb is 20 nM.

With `CN[C@@H]1CCN(c2nc(N)nc3c2OCC2CCCN32)C1` (stereo partly drawn) [Example 1-21, 4-((R)-3-(Methylamino)pyrrolidin-1-yl)-6a,7,8,9-tetrahydro-6H-pyrimido[5,4-b]pyrrolo[1,2-d][1,4]oxazin-2-amine] as the compound, how does the Kb (human H4 receptor [2]) read?
Its Kb is 12.6 nM.

And the inhibition at 30 µM (hERG)?
The inhibition at 30 µM was 8.5%.

For `Cc1cc(C)c2nc(-c3cnc(NCCCC4CCN(C)CC4)nc3C)[nH]c2c1` [Toreforant, reference compound], which Kb (human H4 receptor [2]) is on record?
Its Kb is 20 nM.

What about the inhibition at 30 µM (hERG) of the same compound?
The inhibition at 30 µM was 89%.

How did the Kb (human H4 receptor [2]) turn out when `CC[C@@H]1COc2c(nc(N)nc2N2CC[C@@H](NC)C2)N1` [Example 1-3, (R)-7-Ethyl-4-((R)-3-(methylamino)pyrrolidin-1-yl)-7,8-dihydro-6H-pyrimido[5,4-b][1,4]oxazin-2-amine] was run?
The Kb was 1 nM.

And the inhibition at 30 µM (hERG)?
The inhibition at 30 µM was 18%.

Which Kb (human H4 receptor [1]) does the source give for `CC[C@@H]1CCOc2c(nc(N)nc2N2C[C@H]3CCCN[C@H]3C2)N1` [Example 17-8, 8-ethyl-4-[(4aR,7aR)-octahydro-6H-pyrrolo[3,4-b]pyridin-6-yl]-6,7,8,9-tetrahydropyrimido[5,4-b][1,4]oxazepin-2-amine] here?
The Kb was 15.8 nM.

Which Kb (human H4 receptor [2]) does the source give for `CNC1CN(c2ncnc3c2OC[C@@H](C(C)C)N3)C1` [Example 9-1, (R)-1-(7-Isopropyl-7,8-dihydro-6H-pyrimido[5,4-b][1,4]oxazin-4-yl)-N-methylazetidin-3-amine] here?
Its Kb is 3.98 nM.

And the inhibition at 30 µM (hERG)?
The inhibition at 30 µM was 18%.

How did the Kb (human H4 receptor [2]) turn out when `CN[C@@H]1CCN(c2ncnc3c2OCC(COC)N3)C1` (stereo partly drawn) [Example 7-3, (3R)-1-(7-(Methoxymethyl)-7,8-dihydro-6H-pyrimido[5,4-b][1,4]oxazin-4-yl)-N-methylpyrrolidin-3-amine] was run?
The Kb was 316 nM.

What about the inhibition at 30 µM (hERG) of the same compound?
The inhibition at 30 µM was 48%.

With `CN[C@@H]1CCN(c2nc(N)nc3c2OC(C)CN3)C1` (stereo partly drawn) [Example 1-15, 6-Methyl-4-((R)-3-(methylamino)pyrrolidin-1-yl)-7,8-dihydro-6H-pyrimido[5,4-b][1,4]oxazin-2-amine] as the compound, how does the Kb (human H4 receptor [2]) read?
Its Kb is 398 nM.

And the inhibition at 30 µM (hERG)?
Its inhibition at 30 µM is 1.5%.

`CN[C@@H]1CCN(c2nc(N)nc3c2OC[C@@]2(C)CCCN32)C1` [Example 1-22, (R)-6a-Methyl-4-((R)-3-(methylamino)pyrrolidin-1-yl)-6a,7,8,9-tetrahydro-6H-pyrimido[5,4-b]pyrrolo[1,2-d][1,4]oxazin-2-amine] was tested. Which Kb (human H4 receptor [2]) did it give?
Its Kb is 251 nM.

What about the inhibition at 30 µM (hERG) of the same compound?
The inhibition at 30 µM was 45%.

What does the source list for `CC(C)[C@@H]1COc2c(nc(N)nc2N2CCNCC2)N1` [Example 6-1, (R)-7-Isopropyl-4-(piperazin-1-yl)-7,8-dihydro-6H-pyrimido[5,4-b][1,4]oxazin-2-amine]?
Kb (human H4 receptor [2]): 3.98 nM; inhibition at 30 µM (hERG): 13%

`CN[C@@H]1CCN(c2nc(N)nc3c2OCC(C)(C)CN3)C1` [Example 17-5, 7,7-dimethyl-4-[(3R)-3-(methylamino)pyrrolidin-1-yl]-6,7,8,9-tetrahydropyrimido[5,4-b][1,4]oxazepin-2-amine] was tested. Which Kb (human H4 receptor [1]) did it give?
Its Kb is 200 nM.

With `CN[C@@H]1CCN(c2ncnc3c2OC[C@@H](C(C)C)N3)C1` [Example 7-1, (R)-1-((R)-7-Isopropyl-7,8-dihydro-6H-pyrimido[5,4-b][1,4]oxazin-4-yl)-N-methylpyrrolidin-3-amine] as the compound, how does the Kb (human H4 receptor [2]) read?
Its Kb is 0.631 nM.

And the inhibition at 30 µM (hERG)?
Its inhibition at 30 µM is 31%.

What does the source list for `CC(C)[C@@H]1COc2c(nc(N)nc2N2CCN(C)CC2)N1` [Example 5-1, (R)-7-Isopropyl-4-(4-methylpiperazin-1-yl)-7,8-dihydro-6H-pyrimido[5,4-b][1,4]oxazin-2-amine]?
Kb (human H4 receptor [2]): 3.16 nM; inhibition at 30 µM (hERG): 44%

Which Kb (human H4 receptor [1]) does the source give for `CCC1(C)CCOc2c(nc(N)nc2N2CC[C@@H](NC)C2)N1` (stereo partly drawn) [Example 17-10, 8-ethyl-8-methyl-4-[(3R)-3-(methylamino)pyrrolidin-1-yl]-6,7,8,9-tetrahydropyrimido[5,4-b][1,4]oxazepin-2-amine] here?
Its Kb is 10 nM.

How did the Kb (human H4 receptor [2]) turn out when `CNC1CN(c2nc(N)nc3c2OC[C@@H]([C@@H](C)OC)N3)C1` [Example 3-4, (S)-7-((R)-1-Methoxyethyl)-4-(3-(methylamino)azetidin-1-yl)-7,8-dihydro-6H-pyrimido[5,4-b][1,4]oxazin-2-amine] was run?
Its Kb is 12.6 nM.

And the inhibition at 30 µM (hERG)?
Its inhibition at 30 µM is 12%.

With `CN[C@@H]1CCN(c2nc(N)nc3c2OCC2(CCC2)N3)C1` [Example 17-4, 4′-[(3R)-3-(methylamino)pyrrolidin-1-yl]-6′H,8′H-spiro[cyclobutane-1,7′-pyrimido[5,4-b][1,4]oxazin]-2′-amine] as the compound, how does the Kb (human H4 receptor [1]) read?
Its Kb is 2 nM.

Which Kb (human H4 receptor [2]) does the source give for `CN[C@@H]1CCN(c2nc(N)nc3c2OC[C@H](C(C)C)N3)C1` [Example 1-5, (S)-7-Isopropyl-4-((R)-3-(methylamino)pyrrolidin-1-yl)-7,8-dihydro-6H-pyrimido[5,4-b][1,4]oxazin-2-amine] here?
The Kb was 25.1 nM.

And the inhibition at 30 µM (hERG)?
The inhibition at 30 µM was 68%.

With `CN[C@@H]1CCN(c2nc(N)nc3c2OCC2(CC(F)(F)C2)N3)C1` [Example 17-15, 3,3-difluoro-4′-[(3R)-3-(methylamino)pyrrolidin-1-yl]-6′H,8′H-spiro[cyclobutane-1,7′-pyrimido[5,4-b][1,4]oxazin]-2′-amine] as the compound, how does the Kb (human H4 receptor [1]) read?
The Kb was 7.94 nM.

With `CC[C@@H]1CCOc2c(nc(N)nc2N2CC(NC)C2)N1` [Example 17-6, 8-ethyl-4-[3-(methylamino)azetidin-1-yl]-6,7,8,9-tetrahydropyrimido[5,4-b][1,4]oxazepin-2-amine] as the compound, how does the Kb (human H4 receptor [1]) read?
The Kb was 10 nM.

Which Kb (human H4 receptor [2]) does the source give for `CC(C)[C@@H]1COc2c(ncnc2N2CC[C@@H](N)C2)N1` [Example 8-1, (R)-1-((R)-7-Isopropyl-7,8-dihydro-6H-pyrimido[5,4-b][1,4]oxazin-4-yl)pyrrolidin-3-amine] here?
Its Kb is 5.01 nM.

And the inhibition at 30 µM (hERG)?
The inhibition at 30 µM was 21%.

Which Kb (human H4 receptor [1]) does the source give for `CN[C@@H]1CCN(c2ncnc3c2OCC2(CC(F)(F)C2)N3)C1` [Example 17-13, (3R)-1-(3,3-difluoro-6′H,8′H-spiro[cyclobutane-1,7′-pyrimido[5,4-b][1,4]oxazin]-4′-yl)-N-methylpyrrolidin-3-amine] here?
Its Kb is 3.98 nM.

Which Kb (human H4 receptor [2]) does the source give for `CN[C@@H]1CCN(c2nc(N)nc3c2OC[C@@H](COC)N3)C1` [Example 1-9, (R)-7-(Methoxymethyl)-4-((R)-3-(methylamino)pyrrolidin-1-yl)-7,8-dihydro-6H-pyrimido[5,4-b][1,4]oxazin-2-amine] here?
Its Kb is 10 nM.

What about the inhibition at 30 µM (hERG) of the same compound?
Its inhibition at 30 µM is 12%.

With `CN[C@@H]1CCN(c2nc(N)nc3c2OCC(C(F)(F)F)N3)C1` (stereo partly drawn) [Example 1-8, 4-((R)-3-(Methylamino)pyrrolidin-1-yl)-7-(trifluoromethyl)-7,8-dihydro-6H-pyrimido[5,4-b][1,4]oxazin-2-amine] as the compound, how does the Kb (human H4 receptor [2]) read?
The Kb was 10 nM.

What about the inhibition at 30 µM (hERG) of the same compound?
Its inhibition at 30 µM is 19%.

With `CN[C@@H]1CCN(c2nc(N)nc3c2OCC(C)(C)N3)C1` [Example 1-14, (R)-7,7-Dimethyl-4-(3-(methylamino)pyrrolidin-1-yl)-7,8-dihydro-6H-pyrimido[5,4-b][1,4]oxazin-2-amine] as the compound, how does the Kb (human H4 receptor [2]) read?
Its Kb is 6.31 nM.

What about the inhibition at 30 µM (hERG) of the same compound?
Its inhibition at 30 µM is 11%.

What does the source list for `CN[C@@H]1CCN(c2nc(N)nc3c2OCCN3)C1` [Example 1-1, (R)-4-(3-(Methylamino)pyrrolidin-1-yl)-7,8-dihydro-6H-pyrimido[5,4-b][1,4]oxazin-2-amine]?
Kb (human H4 receptor [2]): 501 nM; inhibition at 30 µM (hERG): 25%
